Assays:
[1] = Therapeutic index, ratio of CC50 for African green monkey Vero cells to IC50 for Trypanosoma cruzi Dm28c intracellular amastigotes infected in African green monkey Vero cells; type: toxicity, cell-based; conditions: read-out: Ratio CC50/IC50
Trypanosoma cruzi [2] = test: Trypanocidal activity against Trypanosoma cruzi Dm28c trypomastigotes infected in monkey LLC-MK2 cells after 24 hrs by luminescent assay; type: functional, organism-based
[3] = Cytotoxicity against Swiss Webster mouse cardiomyocytes after 72 hrs; design: species or system Cardiac Muscle Cell
[4] = Therapeutic index, ratio of CC50 for African green monkey Vero cells to IC50 for infected Swiss Webster mouse derived bloodstream form of Trypanosoma cruzi Y; type: toxicity; conditions: read-out: Ratio CC50/IC50
[5] = Cytotoxicity activity against Swiss Webster mouse primary hepatocytes assessed as reduction in cell viability after 72 hrs by cell-titer-glo assay; type: cell-based, Hepatocyte
[6] = Cytotoxicity activity against African green monkey Vero cells assessed as reduction in cell viability after 72 hrs by cell-titer-glo assay; type: cell-based; conditions: chlorocebus sabaeus
Trypanosoma cruzi [7] = test: Trypanocidal activity against Trypanosoma cruzi Y trypomastigotes infected in monkey LLC-MK2 cells after 24 hrs by cell-titer-glo assay; type: functional, organism-based; conditions: for IC50: LLC-MK2, 24 h; for IC90: LLC-MK2, in Primates, 24 h
Trypanosoma cruzi [8] = test: Trypanocidal activity against Trypanosoma cruzi CL trypomastigotes infected in monkey LLC-MK2 cells after 24 hrs by luminescent assay; type: functional, organism-based; conditions: CL Brener
Trypanosoma cruzi [9] = test: Trypanocidal activity against Trypanosoma cruzi Dm28c intracellular amastigotes infected in African green monkey Vero cells after 72 hrs; type: functional, organism-based
Trypanosoma cruzi [10] = test: Trypanocidal activity against infected Swiss Webster mouse derived bloodstream form of Trypanosoma cruzi Y after 24 hrs by cell-titer-glo assay; type: functional, organism-based
Trypanosoma cruzi [11] = test: Trypanocidal activity against Trypanosoma cruzi Brazil trypomastigotes infected in monkey LLC-MK2 cells after 24 hrs by luminescent assay; type: functional, organism-based
[12] = Therapeutic index, ratio of CC50 for African green monkey Vero cells to IC50 for Trypanosoma cruzi Y trypomastigotes infected in monkey LLC-MK2 cells; type: toxicity, cell-based; conditions: read-out: Ratio CC50/IC50
[13] = Therapeutic index, ratio of CC50 for Swiss Webster mouse cardiomyocytes to IC50 for Trypanosoma cruzi Y intracellular amastigotes infected in Swiss Webster mouse cardiomyocytes; type: toxicity, cell-based; conditions: read-out: Ratio CC50/IC50
Trypanosoma cruzi [14] = test: Trypanocidal activity against Trypanosoma cruzi Y intracellular amastigotes infected in Swiss Webster mouse cardiomyocytes after 72 hrs; type: functional, organism-based

Row | SMILES | selectivity ratio [1] | IC50 (Trypanosoma cruzi [2]; LLC-MK2, 24 h) | IC90 (Trypanosoma cruzi [2]; LLC-MK2, in Primates, 24 h) | CC50 at 72 h [3] | selectivity ratio [4] | CC50 at 72 h [5] | CC50 at 72 h [6] | IC50 (Trypanosoma cruzi [7]) | IC90 (Trypanosoma cruzi [7]) | IC50 (Trypanosoma cruzi [8]; LLC-MK2, 24 h) | IC90 (Trypanosoma cruzi [8]; LLC-MK2, in Primates, 24 h) | IC50 (Trypanosoma cruzi [9]) | IC90 (Trypanosoma cruzi [9]) | IC50 (Trypanosoma cruzi [10]) | IC90 (Trypanosoma cruzi [10]) | IC50 (Trypanosoma cruzi [11]; LLC-MK2, 24 h) | IC90 (Trypanosoma cruzi [11]; LLC-MK2, in Primates, 24 h) | selectivity ratio [12] | selectivity ratio [13] | IC50 (Trypanosoma cruzi [14])
1 | O=C(Cn1ccnc1[N+](=O)[O-])NCc1ccccc1 [BENZNIDAZOLE] | 83.2 | 24.7 µM | 92.3 µM | > 500 µM | 20.2 | > 500 µM | 366 µM | 29.8 µM | 68.5 µM | 69.3 µM | > 100 µM | 4.39 µM | 24.9 µM | 18.1 µM | > 100 µM | 93.3 µM | > 100 µM | 12.2 | > 455 | 1.1 µM
2 | O=C1C=C(O)C(=O)c2ccccc21 [LAWSONE] | 2.39 | – | – | – | – | > 500 µM | 214 µM | > 100 µM | > 100 µM | – | – | 89 µM | > 100 µM | > 100 µM | > 100 µM | – | – | – | – | –
